{
  "source": "patent US20080176811A1",
  "about": "“NOVEL FLAVONE GLYCOSIDE DERIVATIVES FOR USE IN COSMETICS, PHARMACEUTICALS AND NUTRITION” (priority 2000, published 2008)",
  "key": {"[1]": {"tested_on": "Dermal fibroblasts of human skin", "assay": "Phototoxicity, MTT test after simulated sunlight (10 J UV-A/cm^2)", "assay_type": "cell-based", "protocol": "Dermal fibroblasts of human skin were cultivated with increasing concentrations of retinol (Table 1), 6-O-naringin-(p-Cl-phenylacetic acid)ester (Table 2) and 6-O-naringin-(3-phenylpropionic acid)-ester (Table 3). The phototoxicity of the substances was measured by an MTT test. To determine phototoxicity, the treated cells were exposed to simulated sunlight corresponding to a dose of 10 J UV-A/cm^2. The vitality of untreated cells was put at 100% and all other values were related to that value.\nThe exposure of the cells was carried out with a sunlight simulator from the emission spectrum of which the UV-A component of the radiation was measured for quantification. The advantage of this experimental design is the fact that the complete spectrum of the sunlight is used so that the everyday situation is excellently simulated. By contrast, many other research laboratories use pure UV-A and for UV-B lamps."}, "[2]": {"tested_on": "fibroblasts", "assay": "Collagen production at protein level, fibroblasts in three-dimensional culture system", "assay_type": "cell-based", "settings": "5 days, treated against untreated cultures", "protocol": "On the sixth day, the quantity of collagen formed compared with non-collagen protein was determined via the incorporation of titrated protein."}, "[3]": {"tested_on": "fungal tyrosinase (Sigma)", "assay": "Inhibition of tyrosinase activity (L-DOPA to dopachromium, absorption at 475 nm)", "assay_type": "biochemical", "settings": "for Residual tyrosinase activity in %: without active substance = 100%", "protocol": "Tyrosinases physiologially catalyze an important step in the synthesis of melanin (L-dopa to L-dopaquinone which is further cyclized and re-reacted by a tyrosinase to dopachromium). Accordingly, inhibition of the tyrosinase can lead to a skin lightening effect.\nThe activity of fungal tyrosinase (Sigma) was determined in the presence of various concentrations of the active substances according to the invention by enzymatic reaction of LDOPA to dopachromium. The absorption maximum of dopachromium (red-brown) is at λ=475 nm. The linear increase in the absorption (A) of the dopachromium per unit of time (t) is a measure of the activity of the tyrosinase (ΔN/Δt). The activity of the tyrosinase in the absence of the active substances (ΔA1/Δt1) was used as reference (100%). Under analogous conditions, the residual tyrosinase activity was determined in the presence of the active substances (ΔA2/Δt2). Each measurement was carried out twice in parallel runs. The variation of the results of the method is ca.±10%.\n50 mM KH2PO4 buffer in bidist. water (adjustment to pH 6.5 with 1 M aqueous KOH) 2.5 mM L-DOPA in bidist. water 340 U/ml tyrosinase stock solution in cold KH2PO4 buffer, pH 6.5. Stock solutions of the active substance to be tested in bidist. water or ethanol in which the concentration of the active substance was 10 times higher than indicated in the line “active substance concentration in the test system” under “results”.\nLike the tyrosinase stock solution, the reaction cocktail was prepared just before the beginning of the test. The tyrosinase stock solution has to be kept in a refrigerator. The L-DOPA solutions should be stored in darkness and in tightly closed containers in the absence of oxygen. If it turns grey in color (oxidation by atmospheric oxygen), the solution must be freshly prepared.\n33 μl tyrosinase stock solution 100 μl active substance stock solution reaction cocktail to 1000 μl\nThe activity of the tyrosinase in the absence of the active substances was used as reference (100%). All samples were thoroughly mixed in a Vibrofix before the beginning of the measurement. The pH value was monitored and if necessary was adjusted to pH 6.5. The measurement was carried out with a Kontron Uvikon 860 photometer. The absorption of the dopachromium was detected for 5 mins. at 25° C. at the absorption maximum X of 475 nm, the measuring time being 20-30 s."}, "[4]": {"tested_on": "Colα1-mRNA", "assay": "Light-induced expression of Colα1-mRNA in skin models (Northern blot)", "assay_type": "cell-based", "settings": "for Collagen expression: exposed, 0 ppm unexposed = 100; for percentage change in the expression of Colα1: by comparison with exposed, untreated cultures", "protocol": "(§1) To this end, the quantity of mRNA was quantified for MMP1, TIMP and Colaα1. Skin models were treated with the test substances for 12 hours and then exposed to simulated sunlight corresponding to a dose of 10 J UV-A/cm^2. After another 48 hours in the presence of the active substances, the RNA of the cells was prepared and analyzed by Northern blots with specific gene probes. To monitor the quantity of RNA used in the experiments, Northern blots were carried out with an 18S-specific gene probe. To quantify the signal intensities, the autoradiograms were evaluated by densitometry and the values of the signals for MMP1, TIMP and Colα1, were related to the associated values of the 18S signals. The figures in Table 1 represent the densitometric quantification of the signals of a Northern blot after normalization thereof."}, "[5]": {"tested_on": "MMP-1-mRNA", "assay": "Light-induced expression of MMP-1-mRNA in skin models (Northern blot)", "assay_type": "cell-based", "settings": "for MMP 1 expression: 0 ppm unexposed = 100; for percentage change in the expression of MMP: by comparison with exposed, untreated cultures", "protocol": "as §1"}, "[6]": {"tested_on": "TIMP-mRNA", "assay": "Light-induced expression of TIMP-mRNA in skin models (Northern blot)", "assay_type": "cell-based", "settings": "for TIMP expression: 0 ppm unexposed = 100; for percentage change in the expression of TIMP: by comparison with exposed, untreated cultures", "protocol": "as §1"}},
  "note": "Entries after “also recorded” stand apart in the source; their conditions may differ. Like-named read-outs stand apart in the source and are kept apart here.",
  "data": [
    {"smiles": "CC1=C(/C=C/C(C)=C/C=C/C(C)=C/CO)C(C)(C)CCC1", "note": "[retinol, reference compound]", "values": [
      {"measurement": "Phototoxicity (in words)", "setting": "[1]", "value": "toxic in very low concentrations"},
      {"measurement": "Vitality (%; in brackets: SEM)", "setting": "[1]; human, 0.0028 ppm", "value": "99 (7.4) %"},
      {"measurement": "Vitality (%; in brackets: SEM)", "setting": "[1]; human, 0.014 ppm", "value": "95 (19.8) %"},
      {"measurement": "Vitality (%; in brackets: SEM)", "setting": "[1]; human, 0.028 ppm", "value": "80 (25.9) %"},
      {"measurement": "Vitality (%; in brackets: SEM)", "setting": "[1]; human, 0.14 ppm", "value": "28 (11.8) %"},
      {"measurement": "Vitality (%; in brackets: SEM)", "setting": "[1]; human, 0.28 ppm", "value": "4 (2.1) %"}
    ]},
    {"smiles": "CC1OC(OC2C(Oc3cc(O)c4c(c3)OC(c3ccc(O)cc3)CC4=O)OC(COC(=O)Cc3ccc(Cl)cc3)C(O)C2O)C(O)C(O)C1O", "note": "(stereo not shown) [6-O-naringin-(p-Cl-phenylacetic acid)-ester]", "values": [
      {"measurement": "Vitality (%; in brackets: SEM)", "setting": "[1]; 5 ppm, 10 J UV-A/cm^2, untreated cells = 100%", "value": "115 (15) %"},
      {"measurement": "Vitality (%; in brackets: SEM)", "setting": "[1]; 10 ppm, 10 J UV-A/cm^2, untreated cells = 100%", "value": "96 (17.2) %"},
      {"measurement": "Vitality (%; in brackets: SEM)", "setting": "[1]; 50 ppm, 10 J UV-A/cm^2, untreated cells = 100%", "value": "81 (8.3) %"},
      {"measurement": "Vitality (%; in brackets: SEM)", "setting": "[1]; 100 ppm, 10 J UV-A/cm^2, untreated cells = 100%", "value": "3 (1.7) %"},
      {"measurement": "Vitality (%; in brackets: SEM)", "setting": "[1]; 500 ppm, 10 J UV-A/cm^2, untreated cells = 100%", "value": "3 (1.8) %"},
      {"measurement": "Phototoxicity (in words)", "setting": "[1]; compared with retinol, 10 J UV-A/cm^2", "value": "only show toxic effects in relatively high concentrations"},
      {"measurement": "Increase in collagen production", "setting": "[2]; 5 ppm", "value": "−3", "unit": "%"},
      {"measurement": "Increase in collagen production", "setting": "[2]; 50 ppm", "value": 41, "unit": "%"},
      {"measurement": "Residual tyrosinase activity in %", "setting": "[3]; active substance 0.01% (w/v in 98% ethanol)", "value": 45.1, "unit": "%"},
      {"measurement": "Residual tyrosinase activity in %", "setting": "[3]; active substance 0.1% (w/v in 98% ethanol)", "value": 15.4, "unit": "%"},
      {"measurement": "Collagen expression", "setting": "[4]; 5 ppm", "value": 56, "unit": "%"},
      {"measurement": "Collagen expression", "setting": "[4]; 50 ppm", "value": 79, "unit": "%"},
      {"measurement": "percentage change in the expression of Colα1", "setting": "[4]; 50 ppm", "value": 27, "unit": "%"},
      {"measurement": "expression of Colα1 (in words)", "setting": "[4]; 50 ppm, in relation to the exposed, untreated sample", "value": "distinctly increased"},
      {"measurement": "MMP 1 expression", "setting": "[5]; 5 ppm, exposed (10 J UV-A/cm^2)", "value": 129, "unit": "%"},
      {"measurement": "sunlight-induced expression of MMP-1 (in words)", "setting": "[5]; 50 ppm", "value": "very effectively reduced"},
      {"measurement": "MMP 1 expression", "setting": "[5]; 50 ppm, exposed", "value": 40, "unit": "%"},
      {"measurement": "percentage change in the expression of MMP", "setting": "[5]; 50 ppm", "value": "−70", "unit": "%"},
      {"measurement": "TIMP expression", "setting": "[6]; 5 ppm, exposed", "value": 62, "unit": "%"},
      {"measurement": "expression of TIMP (in words)", "setting": "[6]; 50 ppm", "value": "only slightly affected; also recorded: only a slight effect"},
      {"measurement": "TIMP expression", "setting": "[6]; 50 ppm, exposed", "value": 77, "unit": "%"},
      {"measurement": "percentage change in the expression of TIMP", "setting": "[6]; 50 ppm", "value": "−15", "unit": "%"}
    ]},
    {"smiles": "C[C@@H]1O[C@@H](O[C@H]2[C@H](Oc3cc(O)c4c(c3)O[C@H](c3ccc(O)cc3)CC4=O)O[C@H](COC(=O)CCc3ccccc3)[C@@H](O)[C@@H]2O)[C@H](O)[C@H](O)[C@H]1O", "note": "[6-O-naringin-(3-phenylpropionic acid)-ester]", "values": [
      {"measurement": "Phototoxicity (in words)", "setting": "[1]", "value": "only show toxic effects in relatively high concentrations"},
      {"measurement": "Increase in collagen production", "setting": "[2]; 1 ppm", "value": 8, "unit": "%"},
      {"measurement": "Increase in collagen production", "setting": "[2]; 10 ppm", "value": 8, "unit": "%"},
      {"measurement": "Increase in collagen production", "setting": "[2]; 100 ppm", "value": 19, "unit": "%"},
      {"measurement": "Residual tyrosinase activity in %", "setting": "[3]; active substance 0.005% (w/v in bidist H2O)", "value": 98.9, "unit": "%"},
      {"measurement": "Residual tyrosinase activity in %", "setting": "[3]; active substance 0.05% (w/v in bidist H2O)", "value": 69.1, "unit": "%"},
      {"measurement": "Residual tyrosinase activity in %", "setting": "[3]; active substance 0.5% (w/v in bidist H2O)", "value": 0.7, "unit": "%"},
      {"measurement": "IC 50 (tyrosinase)", "setting": "[3]; w/v in bidist H2O", "value": 0.18, "unit": "%"},
      {"measurement": "Collagen expression", "setting": "[4]; 10 ppm", "value": 74, "unit": "%"},
      {"measurement": "expression of Colα1 (in words)", "setting": "[4]; 100 ppm", "value": "increased to the level of the unexposed, untreated culture"},
      {"measurement": "Collagen expression", "setting": "[4]; 100 ppm", "value": 99, "unit": "%"},
      {"measurement": "percentage change in the expression of Colα1", "setting": "[4]; 100 ppm", "value": 64, "unit": "%"},
      {"measurement": "MMP 1 expression", "setting": "[5]; 10 ppm, exposed", "value": 167, "unit": "%"},
      {"measurement": "sunlight-induced expression of MMP-1 (in words)", "setting": "[5]; 100 ppm", "value": "reduced the sunlight-induced expression of MMP-1 to the level of the unexposed, untreated sample"},
      {"measurement": "MMP 1 expression", "setting": "[5]; 100 ppm, exposed", "value": 87, "unit": "%"},
      {"measurement": "percentage change in the expression of MMP", "setting": "[5]; 100 ppm", "value": "−37", "unit": "%"},
      {"measurement": "TIMP expression", "setting": "[6]; 10 ppm, exposed", "value": 104, "unit": "%"},
      {"measurement": "TIMP production (in words)", "setting": "[6]; 100 ppm", "value": "increased TIMP production considerably"},
      {"measurement": "increase in expression of TIMP", "setting": "[6]; 100 ppm, exposed", "value": "around 35%"},
      {"measurement": "TIMP expression", "setting": "[6]; 100 ppm, exposed", "value": 134, "unit": "%"},
      {"measurement": "percentage change in the expression of TIMP", "setting": "[6]; 100 ppm", "value": 50, "unit": "%"}
    ]}
  ]
}
